Several values for one entry are separate records, joined by “and”; a condition that tells them apart may be missing. Equal values may be shown once.
Tests used:
[1] = test system: MS patients in the relapsing and remitting course of the disease (RRMS); assay: Phase 2 trial: change in cortical (neocortical) volume by MRI, SIENAX-MTP3; assay type: in vivo, human; conditions: 3 mg
Procedure: Upon completion of the six-month trial period described in Example 1 the change in neocortical volume and whole brain volume was evaluated. Table 9 below reports the change in neocortical volumes at 3 months and at 6 months, compared to baseline, for the 3 mg and placebo groups. Baseline volume was normalized for head size. Percent change is calculated by […]-multi-time point (MTP3) algorithm. The difference in the mean change in volume calculated to determine the impact treatment with CHS-131.

[2] = test system: MS patients in the relapsing and remitting course of the disease (RRMS); assay: as above; assay type: in vivo, human; conditions: 1 mg
[3] = test system: MS patients in the relapsing and remitting course of the disease (RRMS); assay: Calculated dose response curve: expected new gadolinium CE T1-weighted lesions over six months; parameters: species or system human
Procedure: To test the hypothesis that women will benefit from higher doses of CHS-131 and identify efficacious doses of CHS-131 for women, a dose response curve was calculated. The dose response curve was calculated to determine the efficacy of various daily dose of CHS-131 for males and females. The dose-response curve is assumed to have the following form: RDose=α exp β−Dose+γ Parameter β was determined from negative binomial regression using the observed total new GAD CE lesions 6 Months and numeric dosage of 0, 1, 3 mg. Parameters α and γ were determined using least-squares method on the observed mean total new GAD CE lesions 6 Months. Based on the clinical trial data, we calculated the expected number of new gadolinium CE T1-weighted lesions that would be seen over six months on doses of CHS-131 ranging from 1 to 10 mg per day. Table 7 below provides a tabular report of the percent reduction compared to the number of lesions at a 0 mg dose.

SMILES: O=S(=O)(Nc1cc(Cl)c(Oc2cnc3ccccc3c2)c(Cl)c1)c1ccc(Cl)cc1Cl [CHS-131]
- Cortical volume rate of loss ([1]; 3 Months): −0.297
- Reduction in cortical volume loss from CHS-131, as compared to placebo ([1]; 3 Months): 42.6%
- Cortical volume rate of loss ([1]; 6 Months): −0.709
- Reduction in cortical volume loss from CHS-131, as compared to placebo ([1]; 6 Months): 34.2%
- Cortical volume, percent change from baseline to 6 month, Mean ([1]; n=56): −0.709%
- Cortical volume, percent change from baseline to 6 month, Median ([1]; n=56): −0.832%
- Cortical volume, percent change from baseline to 3 month, Mean ([1]; n=61): −0.297%
- Cortical volume, percent change from baseline to 3 month, Median ([1]; n=61): −0.325%
- reduction in the loss of cortical volume [2]: No reduction in the loss of cortical volume was observed
- Cortical volume, percent change from baseline to 6 month, Mean ([2]; n=50): −1.350%
- Cortical volume, percent change from baseline to 6 month, Median ([2]; n=50): −1.428%
- Cortical volume, percent change from baseline to 3 month, Mean ([2]; n=57): −0.706%
- Cortical volume, percent change from baseline to 3 month, Median ([2]; n=57): −0.746%
- Expected # of Lesions ([3]; Females, 1 mg): 7.14
- Expected Percent Change from Placebo ([3]; Females, 1 mg): −25.9%
- Expected Percent Reduction vs 0 mg dose ([3]; Females, 1 mg): 13.98%
- Expected # of Lesions ([3]; Females, 2 mg): 6.15
- Expected Percent Change from Placebo ([3]; Females, 2 mg): −36.0%
- Expected Percent Reduction vs 0 mg dose ([3]; Females, 2 mg): 25.90%
- Expected # of Lesions ([3]; Females, 3 mg): 5.31
- Expected Percent Change from Placebo ([3]; Females, 3 mg): −44.7%
- Expected Percent Reduction vs 0 mg dose ([3]; Females, 3 mg): 36.02%
- Expected # of Lesions ([3]; Females, 4 mg): 4.59
- Expected Percent Change from Placebo ([3]; Females, 4 mg): −52.1%
- Expected Percent Reduction vs 0 mg dose ([3]; Females, 4 mg): 44.70%
- Expected # of Lesions ([3]; Females, 5 mg): 3.97
- Expected Percent Change from Placebo ([3]; Females, 5 mg): −58.5%
- Expected Percent Reduction vs 0 mg dose ([3]; Females, 5 mg): 52% and 52.17%
- Expected # of Lesions ([3]; Females, 6 mg): 3.45
- Expected Percent Change from Placebo ([3]; Females, 6 mg): −63.9%
- Expected Percent Reduction vs 0 mg dose ([3]; Females, 6 mg): 58.43%
- Expected # of Lesions ([3]; Females, 7 mg): 3.00
- Expected Percent Change from Placebo ([3]; Females, 7 mg): −68.5%
- Expected Percent Reduction vs 0 mg dose ([3]; Females, 7 mg): 63.86%
- Expected # of Lesions ([3]; Females, 8 mg): 2.62
- Expected Percent Change from Placebo ([3]; Females, 8 mg): −72.4%
- Expected Percent Reduction vs 0 mg dose ([3]; Females, 8 mg): 68.43%
- Expected # of Lesions ([3]; Females, 9 mg): 2.29
- Expected Percent Change from Placebo ([3]; Females, 9 mg): −75.8%
- Expected Percent Reduction vs 0 mg dose ([3]; Females, 9 mg): 72.41%
- Expected # of Lesions ([3]; Females, 10 mg): 2.01
- Expected Percent Change from Placebo ([3]; Females, 10 mg): −100.0%
- Expected Percent Reduction vs 0 mg dose ([3]; Females, 10 mg): 75.78%
- Expected # of Lesions ([3]; Males & Females, 1 mg): 6.79
- Expected Percent Change from Placebo ([3]; Males & Females, 1 mg): −31.4%
- Expected Percent Reduction vs 0 mg dose ([3]; Males & Females, 1 mg): 17.20%
- Expected # of Lesions ([3]; Males & Females, 2 mg): 5.63
- Expected Percent Change from Placebo ([3]; Males & Females, 2 mg): −43.0%
- Expected Percent Reduction vs 0 mg dose ([3]; Males & Females, 2 mg): 31.34%
- Expected # of Lesions ([3]; Males & Females, 3 mg): 4.67
- Expected Percent Change from Placebo ([3]; Males & Females, 3 mg): −52.6%
- Expected Percent Reduction vs 0 mg dose ([3]; Males & Females, 3 mg): 43.05%
- Expected # of Lesions ([3]; Males & Females, 4 mg): 3.89
- Expected Percent Change from Placebo ([3]; Males & Females, 4 mg): −60.5%
- Expected Percent Reduction vs 0 mg dose ([3]; Males & Females, 4 mg): 52.56%
- Expected # of Lesions ([3]; Males & Females, 5 mg): 3.24
- Expected Percent Change from Placebo ([3]; Males & Females, 5 mg): −66.9%
- Expected Percent Reduction vs 0 mg dose ([3]; Males & Females, 5 mg): 60.49%
- Expected # of Lesions ([3]; Males & Females, 6 mg): 2.71
- Expected Percent Change from Placebo ([3]; Males & Females, 6 mg): −72.3%
- Expected Percent Reduction vs 0 mg dose ([3]; Males & Females, 6 mg): 66.95%
- Expected # of Lesions ([3]; Males & Females, 7 mg): 2.27
- Expected Percent Change from Placebo ([3]; Males & Females, 7 mg): −76.6%
- Expected Percent Reduction vs 0 mg dose ([3]; Males & Females, 7 mg): 72.32%
- Expected # of Lesions ([3]; Males & Females, 8 mg): 1.92
- Expected Percent Change from Placebo ([3]; Males & Females, 8 mg): −80.2%
- Expected Percent Reduction vs 0 mg dose ([3]; Males & Females, 8 mg): 76.59%
- Expected # of Lesions ([3]; Males & Females, 9 mg): 1.62
- Expected Percent Change from Placebo ([3]; Males & Females, 9 mg): −83.2%
- Expected Percent Reduction vs 0 mg dose ([3]; Males & Females, 9 mg): 80.24%
- Expected # of Lesions ([3]; Males & Females, 10 mg): 1.38
- Expected Percent Change from Placebo ([3]; Males & Females, 10 mg): −100.0%
- Expected Percent Reduction vs 0 mg dose ([3]; Males & Females, 10 mg): 83.17%
- Expected # of Lesions ([3]; Males, 1 mg): 6.33
- Expected Percent Change from Placebo ([3]; Males, 1 mg): −42.0%
- Expected Percent Reduction vs 0 mg dose ([3]; Males, 1 mg): 23.73%
- Expected # of Lesions ([3]; Males, 2 mg): 4.81
- Expected Percent Change from Placebo ([3]; Males, 2 mg): −56.1%
- Expected Percent Reduction vs 0 mg dose ([3]; Males, 2 mg): 42.05%
- Expected # of Lesions ([3]; Males, 3 mg): 3.64
- Expected Percent Change from Placebo ([3]; Males, 3 mg): −67.1%
- Expected Percent Reduction vs 0 mg dose ([3]; Males, 3 mg): 56% and 56.14%
- Expected # of Lesions ([3]; Males, 4 mg): 2.73
- Expected Percent Change from Placebo ([3]; Males, 4 mg): −75.5%
- Expected Percent Reduction vs 0 mg dose ([3]; Males, 4 mg): 67.11%
- Expected # of Lesions ([3]; Males, 5 mg): 2.03
- Expected Percent Change from Placebo ([3]; Males, 5 mg): −82.1%
- Expected Percent Reduction vs 0 mg dose ([3]; Males, 5 mg): 75.54%
- Expected # of Lesions ([3]; Males, 6 mg): 1.49
- Expected Percent Change from Placebo ([3]; Males, 6 mg): −87.1%
- Expected Percent Reduction vs 0 mg dose ([3]; Males, 6 mg): 82.05%
- Expected # of Lesions ([3]; Males, 7 mg): 1.07
- Expected Percent Change from Placebo ([3]; Males, 7 mg): −91.0%
- Expected Percent Reduction vs 0 mg dose ([3]; Males, 7 mg): 87.11%
- Expected # of Lesions ([3]; Males, 8 mg): 0.74
- Expected Percent Change from Placebo ([3]; Males, 8 mg): −94.1%
- Expected Percent Reduction vs 0 mg dose ([3]; Males, 8 mg): 91.08%
- Expected # of Lesions ([3]; Males, 9 mg): 0.49
- Expected Percent Change from Placebo ([3]; Males, 9 mg): −96.4%
- Expected Percent Reduction vs 0 mg dose ([3]; Males, 9 mg): 94.10%
- Expected # of Lesions ([3]; Males, 10 mg): 0.30
- Expected Percent Change from Placebo ([3]; Males, 10 mg): −100.0%
- Expected Percent Reduction vs 0 mg dose ([3]; Males, 10 mg): 96.39%
- reduction in new lesions on the dose response curve in Table 8 ([3]; men, 3 mg per day): 67%
- expected reduction in lesions as compared to placebo (Table 8) ([3]; men, 5 mg per day as printed): 67%
- expected reduction in lesions as compared to placebo (Table 8) ([3]; women, 5 mg per day): 56%

Source: US20190224186A1, “TREATMENT OF MULTIPLE SCLEROSIS WITH CHS-131” (InteKrin Therapeutics, Inc., priority 2016, published 2019)
